This passage reports IC50 results from patent publication US11634447B2 (priority 2012, dated 2023).

For this assay, the system named is bacterial strain LF82 binding to the glycoprotein BSA-(Mannose)3. Description: Bacterial Binding Assay (BBA). The class given is cell-based, Escherichia coli. As to conditions: read-out: Bacterial Binding Assay IC50, LF82/Luciferase strain binding to BSA-(Man)3 coated plates, luminescence. The text has this: The purpose of the Bacterial Binding Assay (BBA) is to determine the inhibition activity of
selective FimH antagonists on the bacterial strain LF82 binding to the glycoprotein BSA-(Mannose)3.
Below is a list of the Materials used to run the BBA are described below. • 1. LB broth: Supplier: Gibco, #10855 • 2. D-PBS: Supplier: Wisent, #311-425-CL • 3. LB agar plates • 4. 96-well black plate (high binding): Supplier: Costar, #3925 • 5. TopSeal™-A adhesive sealing films; Supplier PerkinElmer, #6005185 • 6. Carbonate-bicarbonate buffer pH 9.6 tablets, Supplier: Medicago, #09-8922-24 • 7. Water, Supplier: Gibco, #15230-162 • 8. Bovine serum albumin (BSA): Supplier: Sigma, #A-7888 • 9. (Man)3-BSA (α1-3, α1-6 Mannotriose-BSA, 1 mg), V-Labs, #NGP1336, lot #HGDX37-169-1 • 10. Tween 20: Supplier: Sigma, #P9416 • 11. Bright-Glo Luciferase Assay System: Supplier: Promega, #E2610 • 12. LF82/Luciferase strain: Invasive ability of an Escherichia coli strain isolated from the ileal mucosa of a patient with Crohn ? disease. Boudeau J, Glasser A L, Masseret E, Joly B, Darfeuille-Michaud A, Infect Immun. 1999, 67(9), 4499-509
Solutions and buffers used to run the BBA are described below. • 1. 0.04M carbonate-bicarbonate buffer (coating buffer) • 2. 40 μg/mL BSA-(Man)3: Dissolve 1 mg of (Man)3-BSA in 25 mL of water. • 3. 4000 μg/mL BSA • 4. 40 μg/mL BSA • 5. 1 μg/mL BSA-(Man)3: 150 μL of 40 μg/mL BSA-(Man)3+5.85 mL of 40 μg/mL BSA • 6. 0.5 μg/mL BSA-(Man)3 in 0.02M carbonate-bicarbonate buffer. • 7. 20 μg/mL BSA in 0.02M carbonate-bicarbonate buffer • 8. Blocking buffer (2% BSA/DPBS): 1 g of BSA in 50 mL D-PBS • 9. 2× binding buffer (0.2% BSA/D-PBS): 5 mL of blocking buffer+45 mL D-PBS. • 10. Washing buffer (D-PBS/0.01% Tween 20): 10 μL of Tween 20 in 100 mL D-PBS. • 11. 1× Bright-Glo Luciferase substrate: Dilute 1:1 the Bright-Glo Luciferase Assay System with D-PBS The experimental protocol to run the BBA is described below.
Overnight culture of LF82/Luciferase strain: Into two Falcon 50 mL tubes, add 20 mL of LB+20 μL of 50 mg/mL Kanamycin and inoculate with a loop from glycerol stock of the LF82/Luciferase strain. Incubate overnight at 37° C. with no shaking.
Glycoprotein coating of 96-well plates: Add 100 μL/well of 0.5-2 μg/mL BSA-(Man)3. 20 μg/mL BSA is used as the control background. Seal plate using an adhesive sealing film and incubate overnight at room temperature. Wash the 96-well plate three times with 150 μL/well of D-PBS, add 170 μL/well of blocking solution and incubate 45 min (minimum) at room temperature.
Preparation of bacterial suspension: Mix the two cultures tubes (40 mL) and perform a 1:10 dilution in LB (900 μl LB+100 μl culture. Measure optical density (OD) of the bacterial cultures. OD1 ˜5×10^8 cells/mL. Centrifuge LF82 culture for 20 min at 3500 rpm at room temperature. Re-suspend bacterial pellet in D-PBS and centrifuge again for 20 min at 3500 rpm. Re-suspend bacterial pellet in D-PBS to obtain a bacterial concentration of 2×10^9 bacteria/mL. Dilute 1/10 in D-PBS to obtain a final bacterial concentration of 2×10^8 bacteria/mL (=107 bacteria/50 μL). Perform 1/10 serial dilutions in LB of each bacterial suspension, plate 10 μL of dilutions on LB agar plates (final dilutions of 10^−7) and incubate overnight at 37° C. and count CFUs to determine the actual bacteria density in the assay.
Bacterial binding assay: Add 147 μL 2× binding buffer to compound plate (containing 3 μL of compound). After blocking step is performed (at least 45 min), wash plates three times with 200 μL/well of D-PBS. With a 100 μL multichannel manual pipettor, add 50 µL/well of compound diluted in 2× binding buffer. With a 100 μL multichannel manual pipettor, add 50 μL/well of bacterial suspension. Agitate at slow speed for 1 min and incubate 40-75 min at room temperature. Wash 5 times with 150 μL/well of washing buffer and then once with D-PBS. Add 100 μL/well of 1× Bright-Glo Luciferase substrate. […]
Consider `Cc1cc(C#C[C@H]2O[C@H](CO)[C@@H](O)[C@H](O)[C@@H]2O)cc(C)c1C#C[C@H]1O[C@H](CO)[C@@H](O)[C@H](O)[C@@H]1O` [Compound 100, (2R,3S,4R,5S,6R)-2-[2-[3,5-dimethyl-4-[2-[(2R,3S,4R,5S,6R)-3,4,5-trihydroxy-6-(hydroxymethyl)tetrahydropyran-2-yl]ethynyl]phenyl]ethynyl]-6-(hydroxymethyl)tetrahydropyran-3,4,5-triol], for which the IC50 was 28 nM.

With `OC[C@H]1O[C@H](C#Cc2csc3c(C#C[C@H]4O[C@H](CO)[C@@H](O)[C@H](O)[C@@H]4O)csc23)[C@@H](O)[C@@H](O)[C@@H]1O` [Compound 132, (2R,3S,4R,5S,6R)-2-(hydroxymethyl)-6-[2-[6-[2-[(2R,3S,4R,5S,6R)-3,4,5-trihydroxy-6-(hydroxymethyl)tetrahydropyran-2-yl]ethynyl]thieno[3,2-b]thiophen-3-yl]ethynyl]tetrahydropyran-3,4,5-triol], the IC50 was 52 nM.

As for `Cc1cc([C@H]2O[C@H](CO)[C@@H](O)[C@H](O)[C@@H]2O)ccc1-c1ccc([C@H]2O[C@H](CO)[C@@H](O)[C@H](O)[C@@H]2O)c(C)c1` [Compound 149], the IC50 stood at 27 nM.

Consider `COCc1cc(C#C[C@H]2O[C@H](CO)[C@@H](O)[C@H](O)[C@@H]2O)c(COC)cc1C#C[C@H]1O[C@H](CO)[C@@H](O)[C@H](O)[C@@H]1O` [Compound 89, (2R,3S,4R,5S,6R)-2-[2-[2,5-bis(methoxymethyl)-4-[2-[(2R,3S,4R,5S,6R)-3,4,5-trihydroxy-6-(hydroxymethyl)tetrahydropyran-2-yl]ethynyl]phenyl]ethynyl]-6-(hydroxymethyl)tetrahydropyran-3,4,5-triol], for which the IC50 came out at 82 nM.

In the case of `O=C(c1c(C#C[C@H]2O[C@H](CO)[C@@H](O)[C@H](O)[C@@H]2O)ccc2c1C1(CCNCC1)c1cc(C#C[C@H]3O[C@H](CO)[C@@H](O)[C@H](O)[C@@H]3O)ccc1-2)[C@@H]1CCCO1` [Compound 242, [2,7-bis[2-[(2R,3S,4R,5S,6R)-3,4,5-trihydroxy-6-(hydroxymethyl)tetrahydropyran-2-yl]ethynyl]spiro[fluorene-9,4piperidine]-1yl]-[(2S)-tetrahydrofuran-2-yl]methanone], the IC50 turned out to be 0.18 nM.

With `OC[C@H]1O[C@H](C#Cc2ccc3nc(C#C[C@H]4O[C@H](CO)[C@@H](O)[C@H](O)[C@@H]4O)ncc3c2)[C@@H](O)[C@@H](O)[C@@H]1O` [Compound 127, (2R,3S,4R,5S,6R)-2-(hydroxymethyl)-6-[2-[2-[2-[(2R,3S,4R,5S,6R)-3,4,5-trihydroxy-6-(hydroxymethyl)tetrahydropyran-2-yl]ethynyl]quinazolin-6-yl]ethynyl]tetrahydropyran-3,4,5-triol], the IC50 stood at 43 nM.

Consider `OC[C@H]1O[C@H](c2ccc(-c3cccc(-c4ccc([C@H]5O[C@H](CO)[C@@H](O)[C@H](O)[C@@H]5O)cc4)c3)cc2)[C@@H](O)[C@@H](O)[C@@H]1O` [Compound 66], for which the IC50 was determined as 34 nM.

For the molecule `OC[C@H]1O[C@H](C#Cc2ccc3c(c2)C2(C[C@@H](O)[C@@H](O)C2)c2cc(C#C[C@H]4O[C@H](CO)[C@@H](O)[C@H](O)[C@@H]4O)ccc2-3)[C@@H](O)[C@@H](O)[C@@H]1O` (stereo partly drawn) [Compound 194, (2R,3 S,4R,5S,6R)-2-[2-[(3R,4S)-3,4-Dihydroxy-7[2-[(2R,3 S,4R,5S,6R)-3,4,5-trihydroxy-6-(hydroxymethyl)tetrahydropyran-2-yl]ethynyl]spiro[cyclopentane-1,9fluorene]-2yl]ethynyl]-6-(hydroxymethyl)tetrahydropyran-3,4,5-triol], the IC50 was determined as 0.27 nM.

On to `OC[C@H]1O[C@H](C#Cc2ccc(C#C[C@H]3O[C@H](CO)[C@@H](O)[C@H](O)[C@@H]3O)c(OC(F)(F)F)c2)[C@@H](O)[C@@H](O)[C@@H]1O` [Compound 87, (2R,3S,4R,5S,6R)-2-(hydroxymethyl)-6-[2-[3-(trifluoromethoxy)-4-[2-[(2R,3S,4R,5S,6R)-3,4,5-trihydroxy-6-(hydroxymethyl)tetrahydropyran-2-yl]ethynyl]phenyl]ethynyl]tetrahydropyran-3,4,5-triol], for which the IC50 was 17 nM.
